Reference: patent US7897340B2, “Use of tumor susceptibilty gene 101 (TSG 101) as a prognostic and diagnostic marker” (The Board of Regents of the University of Texas System, priority 2006, dated 2011)

What was measured:
Format in all cases: cell-based, human
SKOV-3 cells [1] = assay: Cell viability MTT assay; conditions: SKOV-3, days 3 to 7 post transfection, vs scrambled control siRNA
Text: (§1) A siRNA duplex specific for TSG101 (targeting TSG101 coding sequence 413-433) and a scrambled random control siRNA with matching GC content were obtained from Dharmacon. This specific TSG101 siRNA duplex (sense: CCUCCAGUCUUCUCUCGUCdTdT (SEQ ID NO: 7) and antisense: dTd[…] (SEQ ID NO: 8) have been successfully applied to suppress the expression of endogenous TSG101 in several high quality studies (Amit et al., 2004; Garrus et al., 2001; Hewitt et al., 2002; Ismaili et al., 2005). Transfection of the siRNAs was according to the manufacturer's instructions using Lipofectamine 2000 (Invitrogen).
SKOV-3 cells were trypsinized 48 hrs post-transfection with siRNAs and plated at 2×10^3 cells/well in 96 well plates, with 5 wells for each treatment. On subsequent days (days 3 to 7), media was removed and 100 μl/well fresh media was added along with 10 μl of 3-(4,5-dimethylthiazol-2-yl)-2,5-diphenyl tetrazolium bromide (MTT) to a final concentration of 500 μg/ml. Cells were incubated for 3 hrs at 37° C., and then lysed by adding 200 μl/well DMSO and incubating at 37° C. for 1 hr. Cell viability was measured by reduction of MTT, which registered absorbance at 595 nm on a Molecular Devices microplate reader.

[2] = tested on: TSG101 recruitment to the p21 promoter; assay: Chromatin immunoprecipitation (ChIP) assay with TSG101 antibody; conditions: SKOV-3, ChIP with TSG101 antibody, vs control siRNA
Text: Pelleted DNA was resuspended in TBE. […] ID NO: 11), reverse [NT] ID NO:12).

p21 mRNA = p21 mRNA by RT-PCR in SKOV-3 cells; conditions: SKOV-3, after 4 days following siRNA transfection
Procedure: (§2) Total RNA was isolated from cells using Trizol reagent (Invitrogen), and concentration was determined by absorbance at 260 nm. Semiquantitative RT-PCR was carried out using 1 μg of isolated total RNA. Primers used for RT-PCR were TSG101 forward 5′-[…]-3′ (SEQ ID NO: 1), reverse 5′-[…]-3′ (SEQ ID NO:2), p21 forward 5′-[…]-3′ (SEQ ID NO: 9), reverse 5′-CCGTTTTCGACCCTGAGAG-3′ (SEQ ID NO:10).

HIF-1α mRNA = HIF-1α mRNA by RT-PCR in SKOV-3 cells; conditions: SKOV-3, 3 days following siRNA transfection
Procedure: (§3) Total RNA was isolated from cells using Trizol reagent (Invitrogen), and concentration was determined by absorbance at 260 nm. Real-Time PCR analysis was carried out using fluorescent TSG101 primers on an Applied Biosystems Prism 7000 Sequence Detection System. RT-PCR was carried out for TSG101 and HIF-1α using 1 μg of isolated total RNA under the following parameters: 94° C. 1 min, 57° C. 1 min and 72° C. 1.5 min, 35 cycles. Primers used for RT-PCR were TSG10 forward 5′-[…]-3′ (SEQ ID NO: 1), reverse 5′-TTTCCTCC TTCATCCGCCATCTC-3′ (SEQ ID NO: 2), CITED2 forward 5′-[…]-3′ (SEQ ID NO: 3), reverse 5′-[…]-3′ (SEQ ID NO: 4), HIF-1a ? forward 5′-[…]-3′ (SEQ ID NO: 5), reverse 5′-[…]-3′ (SEQ ID NO: 6).
as §1

p21 = p21 protein by immunoblotting in SKOV-3 cells; conditions: SKOV-3, after 4 days following siRNA transfection
Procedure: (§4) Cells transfected with either control or TSG101 siRNA were passaged and subsequently harvested on the appropriate days by trypsinizing cells, washing pelleted cells in PBS and then lysing cells in SDS lysis buffer. Protein concentration of cell lysates was assayed with the Bio-Rad protein assay reagent. […] Immunoblots were developed by enhanced chemiluminescence (Pierce, Rockford, Ill.).

CITED2 mRNA = CITED2 mRNA by RT-PCR in SKOV-3 cells; conditions: SKOV-3, 3 days following siRNA transfection
Procedure: as §3, §1

SKOV-3 cells [3] = assay: Nuclear DNA condensation staining (Hoechst); conditions: SKOV-3, day 5 following siRNA transfection
Procedure: 2-3×10^5 SKOV-3 cells were plated in 3 cm tissue culture plates containing polylysine coated coverslips, and transfected with either control or TSG101 siRNA. Cells on coverslips were stained 5 days post-transfection with Hoechst 22658 for 30 min, rinsed with PBS, and sealed onto glass slides. Nuclear DNA condensation was examined using a fluorescence microscope (Olympus BX51) equipped with a Hamamatsu digital camera (C4742-95).

[4] = tested on: HIF-1α transcriptional activity; assay: HIF-1α GFP reporter assay (HRE-GFP) in SKOV-3 cells
Procedure: Cells were plated at 1×10^5 in 3.5 cm wells and grown overnight at 37° C. The following day cells were transfected with 375 ng/well of either TSG101 or control siRNA duplex using Lipofectamine 2000. Cells were then passaged at 48 hrs post-transfection and used for subsequent experiments. The HIF-1α response element (HRE)-GFP reporter (a generous gift from Mark Dewhirst) was transfected into cells 48 hrs after transfection with siRNA reagents, and subsequently plated onto microscope cover slips. On the fifth day following siRNA transfection, cells on cover slips were rinsed in PBS and fixed in 2% paraformaldehyde for 15 min. Nuclear staining was carried out with DAPI (5 ng/ml) for 5 min, after which slides were mounted and observed using a fluorescence microscope (Olympus BX51) equipped with a Hamamatsu digital camera (C4742-95).
To test the functional consequence of TSG101 knock-down mediated down-regulation of CITED2/HIF-1 ? HIF-1 ? transcriptional activity was examined using a HIF-1-inducible fluorescent reporter. This construct was created by splicing five copies of the hypoxia regulatory element (HRE) upstream of enhanced green fluorescent protein (GFP), which provided a convenient method for monitoring HIF-1 activity levels by following GFP expression using fluorescence microscopy (Moeller et al., 2004).

TSG101 = TSG101 expression after siRNA by semiquantitative PCR and immunoblotting in SKOV-3 cells; conditions: SKOV-3, semi-quantitative PCR and immunoblotting
Text: as §1, §2, §4

Substance: TSG101 siRNA: siRNA duplex from Dharmacon targeting TSG101 coding sequence 413-433, SEQ ID NO: 7 and 8 (chain 1 CCUCCAGUCUUCUCUCGUCTT; chain 2 TTGGAGGUCAGAAGAGAGCAG; chemistry not fully specified; one strand is listed 3' to 5')
- cell viability (MTT) (SKOV-3 cells [1]): decrease dramatically in number beginning 5 days post transfection
- recruitment of TSG101 to the p21 promoter [2]: dramatically reduced
- p21 messenger RNA level (p21 mRNA): significantly upregulated
- HIF-1α mRNA expression (HIF-1α mRNA): significantly down-regulated
- p21 protein level (p21): significantly upregulated
- CITED2 mRNA expression (CITED2 mRNA): significantly down-regulated
- nuclear DNA condensation/fragmentation (SKOV-3 cells [3]): apparent increases
- fluorescent signal from GFP expression (HRE-GFP) ([4]; SKOV-3, fluorescence microscopy, 4 days post-transfection as printed): significantly decreased
- GFP protein expression (HRE-GFP) ([4]; SKOV-3, immunoblotting): significantly decreased expression of GFP
- TSG101 expression (mRNA and protein) (TSG101): Suppression of TSG101 expression was confirmed
